Patent publication US20100075852A1, “HERBICIDE COMBINATION COMPRISING DIMETHOXYTRIAZINYL-SUBSTITUTED DIFLUOROMETHANESULFONYLANILIDES” (BAYER CROPSCIENCE AG, priority 2008, published 2010)
Read-outs that look alike come from different tables or passages of the source.

How the values were obtained:
Test in all cases: Post-emergence action against weeds, greenhouse pot test, visual scoring
Type in all cases: in vivo
[1] = system: Triticum aestivum (TRZAS); conditions: Triticum aestivum, post-emergence, read-out: % activity found; for inhibition at 750 g/ha: 750 g of ai/ha alone; for inhibition at 20 g/ha: 20 g of ai/ha alone; for inhibition at 60 g/ha: 60 g of ai/ha alone
Description: (§1) Seeds or rhizome pieces of mono- and dicotyledonous harmful and useful plants were placed in peat pots (diameter 4 cm) filled with sandy loam and then covered with soil. The pots were kept in a greenhouse under optimum conditions. In addition, harmful plants encountered in paddy rice cultivation were cultivated in pots with a water level 2 cm above the soil surface.
(§2) About three weeks after the start of the cultivation, the test plants were treated at the 2- to 3-leaf stage. The herbicides, formulated as powder or liquid concentrates, were, either alone or in the combinations according to the invention, sprayed in various dosages on to the green parts of the plants using an application rate of 600 l of water/ha (converted). For further cultivation of the plants, the pots were then again kept under optimum conditions in a greenhouse.
(§3) The visual scoring of the herbicidal effects was carried out in intervals up to 21 days after the treatment. Scoring was carried out in percent in comparison to the untreated control plants. 0%=no herbicidal activity, 100%=complete herbicidal activity=complete kill.
(§4) The percentages from the treatments with the herbicides alone (=individual application) and with the combinations according to the invention (=mixtures) were employed to calculate interactions using the method of Colby.
(§5) • A, B=activity of components A and B in percent at a dosage of a and b g of ai/ha (=gramm of active substance per hectare), respectively. • E=expected value in % at a dosage of a+b g of ai/ha.

[2] = system: Cyperus esculentus (CYPES)
Description: as §1, §2, §3, §4, §5

Zea mays (ZEAMX) = conditions: for inhibition at 36 g/ha: 36 g of ai/ha alone
Description: as §1, §2, §3, §4, §5

[3] = system: Lolium multiflorum (LOLMU); conditions: Lolium multiflorum, post-emergence, LOLMU, read-out: % activity found; for inhibition at 750 g/ha: 750 g of ai/ha alone; for inhibition at 60 g/ha: 60 g of ai/ha alone; for inhibition at 70 g/ha: 70 g of ai/ha alone; for inhibition at 12 g/ha: 12 g of ai/ha alone
Description: as §1, §2, §3, §4, §5

[4] = system: Alopecurus myosuroides (ALOMY); conditions: read-out: % activity found; for inhibition at 20 g/ha: 20 g of ai/ha alone; for inhibition at 60 g/ha: 60 g of ai/ha alone
Description: as §1, §2, §3
(§6) The percentages from the treatments with the herbicides alone (=individual application) and with the combinations according to the invention (=mixtures) were employed to calculate interactions using the method of Colby. When the observed efficacies of the mixtures exceed the formal sum of the values of the tests with individual applications, they also exceed the expected value according to Colby, which is calculated using the formula below (cf. S. R. Colby; in Weeds 15 (1967) pp. 20 to 22):
as §5

[5] = system: Fallopia (ex Polygonum) convolvulus (POLCO); conditions: Fallopia convolvulus, post-emergence, 504 h, POLCO, 21 DAT, read-out: % activity found
Description: as §1, §2, §3, §4, §5

Oryza sativa (ORYSA) = conditions: read-out: % activity found; for inhibition at 7 g/ha: 7 g of ai/ha alone; for inhibition at 210 g/ha: 210 g of ai/ha alone
Description: as §1, §2, §3, §6, §5

Viola tricolor (VIOTR) = conditions: Viola tricolor, post-emergence, 504 h, 21 DAT, read-out: % activity found
Description: as §1, §2, §3, §4, §5

Avena fatua (AVEFA) = conditions: Avena fatua, post-emergence, 504 h, read-out: % activity found
Description: as §1, §2, §3, §4, §5

[6] = system: Matricaria inodora (MATIN); conditions: Tripleurospermum inodorum, post-emergence, 504 h, MATIN, 21 DAT, read-out: % activity found
Description: as §1, §2, §3, §4, §5

[7] = Cyperus esculentus, post-emergence, 504 h, read-out: % activity found
[8] = Zea mays, post-emergence, 240 h, read-out: % activity found

SMILES: CC(C)c1nn(C(=O)NC(C)(C)C)c(=O)n1N [B6-1, 4-amino-N-(1,1-dimethylethyl)-4,5-dihydro-3-(1-methylethyl)-5-oxo-1H-1,2,4-triazole-1-carboxamide]
- inhibition at 250 g/ha ([1]; 240 h, 10 DAT, 250 g of ai/ha alone): 10%
- inhibition at 750 g/ha ([1]; 240 h, 10 DAT): 20%
- inhibition at 750 g/ha ([1]; 504 h, 21 DAT): 70%
- inhibition at 250 g/ha [2, 7]: 0%
- inhibition at 750 g/ha [2, 7]: 0%
- inhibition at 750 g/ha (Zea mays (ZEAMX); Zea mays, post-emergence, 504 h, ZEAMX, 21 DAT, 750 g of ai/ha alone, read-out: % activity found): 10%
- inhibition at 750 g/ha ([3]; 240 h, 10 DAT): 60%
- inhibition at 750 g/ha ([3]; 504 h, 21 DAT): 70%
- inhibition at 750 g/ha ([4]; 504 h, ALOMY, 21 DAT, 750 g of ai/ha alone): 70%

SMILES: CS(=O)(=O)c1cc(C(F)(F)F)ccc1C(=O)c1cnoc1C1CC1 [B3-3, (5-cyclopropyl-4-isoxazolyl)[2-(methylsulfonyl)-4-(trifluoromethyl)phenyl]methanone]
- inhibition at 20 g/ha ([1]; 240 h, 10 DAT): 30%
- inhibition at 60 g/ha ([1]; 240 h, 10 DAT): 50%
- inhibition at 20 g/ha ([1]; 504 h, 21 DAT): 20%
- inhibition at 60 g/ha ([1]; 504 h, 21 DAT): 40%
- inhibition at 20 g/ha ([2]; Cyperus esculentus, post-emergence, 504 h, CYPES, 21 DAT, 20 g of ai/ha alone, read-out: % activity found): 0%
- inhibition at 20 g/ha ([5]; 20 g of ai/ha alone): 0%
- inhibition at 60 g/ha ([5]; 60 g of ai/ha alone): 0%
- inhibition at 20 g/ha (Zea mays (ZEAMX); Zea mays, post-emergence, 504 h, ZEAMX, 21 DAT, 20 g of ai/ha alone, read-out: % activity found): 0%
- inhibition at 60 g/ha (Zea mays (ZEAMX); Zea mays, post-emergence, 504 h, ZEAMX, 21 DAT, 60 g of ai/ha alone, read-out: % activity found): 20%
- inhibition at 60 g/ha ([3]; 240 h, 10 DAT): 30%
- inhibition at 20 g/ha ([3]; 504 h, 21 DAT, 20 g of ai/ha alone): 0%
- inhibition at 60 g/ha ([3]; 504 h, 21 DAT): 0%
- inhibition at 20 g/ha (Oryza sativa (ORYSA); 240 h, ORYSA, 10 DAT, 20 g of ai/ha alone): 50%
- inhibition at 20 g/ha ([4]; 240 h, ALOMY, 10 DAT): 20%
- inhibition at 60 g/ha ([4]; 240 h, ALOMY, 10 DAT): 30%
- inhibition at 20 g/ha ([4]; 504 h, ALOMY, 21 DAT): 0%
- inhibition at 60 g/ha ([4]; 504 h, ALOMY, 21 DAT): 10%

SMILES: COCc1cnc(C2=NC(C)(C(C)C)C(=O)N2)c(C(=O)O)c1 (racemic) [B4-2, (±)-2-[4,5-dihydro-4-methyl-4-(1-methylethyl)-5-oxo-1H-imidazol-2-yl]-5-(methoxymethyl)-3-pyridinecarboxylic acid]
- inhibition at 7 g/ha ([2]; Cyperus esculentus, post-emergence, 504 h, CYPES, 21 DAT, 7 g of ai/ha alone, read-out: % activity found): 0%
- inhibition at 7 g/ha (Viola tricolor (VIOTR); 7 g of ai/ha alone): 20%
- inhibition at 21 g/ha (Viola tricolor (VIOTR); 21 g of ai/ha alone): 40%
- inhibition at 21 g/ha (Avena fatua (AVEFA); AVEFA, 21 DAT, 21 g of ai/ha alone): 70%
- inhibition at 7 g/ha (Zea mays (ZEAMX); Zea mays, post-emergence, 504 h, ZEAMX, 21 DAT, 7 g of ai/ha alone, read-out: % activity found): 10%
- inhibition at 21 g/ha (Zea mays (ZEAMX); Zea mays, post-emergence, 504 h, ZEAMX, 21 DAT, 21 g of ai/ha alone, read-out: % activity found): 60%
- inhibition at 7 g/ha ([3]; 504 h, 21 DAT, 7 g of ai/ha alone): 80%
- inhibition at 7 g/ha (Oryza sativa (ORYSA); 240 h, ORYSA, 10 DAT): 70%
- inhibition at 7 g/ha (Oryza sativa (ORYSA); 504 h, ORYSA, 21 DAT): 70%

SMILES: CC(C)Oc1cc(-n2nc(C(C)(C)C)oc2=O)c(Cl)cc1Cl [B5-3, 3-[2,4-dichloro-5-(1-methylethoxy)phenyl]-5-(1,1-dimethylethyl)-1,3,4-oxadiazol-2(3H)-one]
- inhibition at 70 g/ha ([1]; 240 h, 10 DAT, 70 g of ai/ha alone): 40%
- inhibition at 70 g/ha ([6]; 70 g of ai/ha alone): 70%
- inhibition at 210 g/ha ([6]; 210 g of ai/ha alone): 70%
- inhibition at 70 g/ha (Avena fatua (AVEFA); AVEFA, 21 DAT, 70 g of ai/ha alone): 10%
- inhibition at 210 g/ha (Avena fatua (AVEFA); AVEFA, 21 DAT, 210 g of ai/ha alone): 30%
- inhibition at 210 g/ha (Zea mays (ZEAMX); Zea mays, post-emergence, 504 h, ZEAMX, 21 DAT, 210 g of ai/ha alone, read-out: % activity found): 60%
- inhibition at 70 g/ha ([3]; 240 h, 10 DAT): 50%
- inhibition at 70 g/ha ([3]; 504 h, 21 DAT): 40%
- inhibition at 210 g/ha (Oryza sativa (ORYSA); 240 h, ORYSA, 10 DAT): 40%
- inhibition at 70 g/ha (Oryza sativa (ORYSA); 504 h, ORYSA, 21 DAT, 70 g of ai/ha alone): 0%
- inhibition at 210 g/ha (Oryza sativa (ORYSA); 504 h, ORYSA, 21 DAT): 0%

SMILES: CCOC(=O)C(Cl)Cc1cc(-n2nc(C)n(C(F)F)c2=O)c(F)cc1Cl (stereo not drawn) [B6-2, ethyl α,2-dichloro-5-[4-(difluoromethyl)-4,5-dihydro-3-methyl-5-oxo-1H-1,2,4-triazol-1-yl]-4-fluorobenzenepropanoate]
- (7) activity found ([2]; CYPES, 21 DAT, rate (6) B6-2 18): 50%
- inhibition at 6 g/ha (Avena fatua (AVEFA)): 10%
- (7) activity found (Zea mays (ZEAMX); ZEAMX, 21 DAT, rate (6) B6-2 6): 30%
- (7) activity found (Zea mays (ZEAMX); ZEAMX, 21 DAT, rate (6) B6-2 18): 40%
- inhibition at 6 g/ha (Zea mays (ZEAMX); [8]): 50%
- inhibition at 18 g/ha (Zea mays (ZEAMX); [8]): 60%
- inhibition at 6 g/ha (Oryza sativa (ORYSA); 240 h): 50%
- inhibition at 6 g/ha ([4]; 504 h): 0%
- inhibition at 18 g/ha ([4]; 504 h): 0%

SMILES: C#CCOc1cc(-n2nc(C(C)(C)C)oc2=O)c(Cl)cc1Cl [B5-2, 3-[2,4-dichloro-5-(2-propynyloxy)phenyl]-5-(1,1-dimethylethyl)-1,3,4-oxadiazol-2(3H)-one]
- inhibition at 36 g/ha ([1]; 240 h, 10 DAT, 36 g of ai/ha alone): 40%
- inhibition at 12 g/ha ([6]; 12 g of ai/ha alone): 60%
- inhibition at 36 g/ha ([6]; 36 g of ai/ha alone): 60%
- inhibition at 12 g/ha (Avena fatua (AVEFA); AVEFA, 21 DAT, 12 g of ai/ha alone): 20%
- inhibition at 36 g/ha (Zea mays (ZEAMX); Zea mays, post-emergence, 240 h, ZEAMX, 10 DAT, read-out: % activity found): 60%
- inhibition at 36 g/ha (Zea mays (ZEAMX); Zea mays, post-emergence, 504 h, ZEAMX, 21 DAT, read-out: % activity found): 40%
- inhibition at 12 g/ha ([3]; 240 h, 10 DAT): 40%
- inhibition at 12 g/ha ([3]; 504 h, 21 DAT): 30%
- inhibition at 36 g/ha ([3]; 504 h, 21 DAT, 36 g of ai/ha alone): 65%
- inhibition at 12 g/ha ([4]; 504 h, ALOMY, 21 DAT, 12 g of ai/ha alone): 20%
